Molecules are shown by their SMILES.

The nature of the data set: gradient 5% acetonitrile 3 min, to 50% in 2 min, to 85% in 15 min, held 3 min, 100 µL/min. The conditions noted are these: column: Zorbax Extend-C18 2.1 x 50 mm; eluents: water / acetonitrile, 0.1% formic acid. Summed up: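 Values are retention times taken from adduct peaks that software picked and an analyst inspected. The pure standards were run as mixtures of ~100 molecules on HPLC linked to a quadrupole time-of-flight mass spectrometer, in positive and negative ionization mode. A Zorbax Extend-C18 column (2.1 × 50 mm, 1.8 μm) was used at 100 μL/min with water and acetonitrile, each including 0.1% formic acid.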
For the compound `O=C(c1ccc(F)c(F)c1)N1CCN(c2cc(-c3ccc(Cl)cc3)[nH]n2)CC1`, the RP-LC retention time was determined as 900 s.
As to `Cc1cccc(-c2noc(Cn3c(=O)n(-c4cccc(C)c4)c(=O)c4sccc43)n2)c1`, the RP-LC retention time turned out to be 1090 s.
As for `CCCn1c(-c2cccc(C(=O)NCc3ccco3)c2)nc2cccnc21`, the figure is 742 s; as for `CCOc1ccc(-c2noc(CSc3nccn3-c3ccc(C)cc3)n2)cc1OC`, 908 s; as for `COC(=O)C1(C)CCCC2(C)c3cc(OC)ccc3C(=O)C(Br)C12` (stereo not given), 1130 s.
As for `CCN1C(=O)COc2ccc(-c3noc(-c4ccc(C#N)cc4)n3)cc21`, the figure is 1050 s; as for `COCc1nc2ccccc2n1CC(=O)Nc1ccccc1`, 780 s.
As for `COC(=O)c1cn(CC(=O)NCc2cc3c(cc2OC)OCCCO3)c2ccccc12`, the figure is 897 s; as for `O=C(NCCc1ccncc1)C1CN(S(=O)(=O)c2ccccc2)CC12CCCCC2` (stereo not given), 641 s.
Consider `C=CCNC(=O)c1cn(-c2cc(-c3nc(CC)no3)ccn2)cn1`, for which the RP-LC retention time came out at 646 s.
As for `CC1=C(c2ccccc2)S(=O)(=O)N=C1N1CCCN(S(=O)(=O)c2cccnc2)CC1`, the figure is 769 s; as for `O=C(COc1ccc(F)cc1)NCC(=O)N1CCN(c2ccccn2)CC1`, 609 s.
As for `Cc1noc(C2CN(C(=O)NCc3ccc(F)cc3)CC23CCOCC3)n1` (stereo not given), the figure is 698 s; as for `CN1c2ccccc2C(=O)NC12CCN(C(=O)NCc1ccc(F)cc1)CC2`, 724 s; as for `CCCNC(=O)C1CCN(Cc2cc3ccccc3n2Cc2cccc(Cl)c2)CC1`, 756 s.
In turn, `Cc1ccc2nc(NC(=O)CSc3nn4c(=O)c(C)nnc4s3)sc2c1` showed an RP-LC retention time of 704 s.
Next, `CCOC(=O)c1cc(NC(=O)Nc2cccc(OC)c2)c(C)nc1C`: 701 s; `Cn1c(N2CCCC(C(=O)NCCC3=CCCCC3)C2)cc(=O)n(C)c1=O` (stereo not given): 754 s; `Cc1ccc(S(=O)(=O)N2CCC(n3cnnc3C3CC3)CC2)cc1Cl`: 809 s.
As to `COc1ccc(-n2c(N(C)C)nc3cc(C(=O)NC4CC4)sc32)cc1`, the RP-LC retention time worked out at 653 s.
As for `CCC(=O)Nc1ccc(-n2cnc(C(=O)NCc3ccccc3)c2)nc1`, the figure is 697 s.
Take `CN1CCN(C(=O)C2CCN(S(=O)(=O)c3cc(-c4noc(C5CC5)n4)cs3)CC2)CC1`: the RP-LC retention time stood at 643 s.
`CCn1cnc(S(=O)(=O)N2CCC(C(=O)N3CCN(c4ccccn4)CC3)CC2)c1` returned an RP-LC retention time of 556 s.
As for `CCSc1ccccc1C(=O)Nc1cc(C(C)(C)C)nn1CCO`, the figure is 781 s; as for `O=C(CC1CCN(S(=O)(=O)c2ccc(Cl)s2)CC1)N1CCCCC1`, 946 s.
As for `Cn1c(=O)c(=O)n(C)c2cc(N3CCCCC3)c(NC(=O)CN3CCCC3)cc21`, the figure is 599 s; as for `COc1ccc(CNC2=NCCNC23CCN(S(=O)(=O)c2c(C)cc(C)cc2C)CC3)cc1`, 834 s; as for `Cn1c(N2CCCC(C(=O)N3CCN(Cc4ccccc4)CC3)C2)cc(=O)n(C)c1=O` (stereo not given), 597 s.
As for `Cc1cc(N2CCN(C(=O)Nc3cccc(Cl)c3)CC2)nc(N2CCOCC2)n1`, the figure is 672 s; as for `Cc1sc2ccn(CC(C)C)c(=O)c2c1C(=O)NCc1cc(F)cc(F)c1`, 1070 s; as for `FCCN(CCF)c1cccc(Cl)c1`, 1060 s.
`CCCCn1c(=O)c2ccccc2n(Cc2nc(-c3ccc(C)cc3)no2)c1=O` came in with an RP-LC retention time of 853 s.
As for `CCC(C)CC(=O)N1CCCN(C2=NS(=O)(=O)C(c3ccc(Cl)cc3)=C2C)CC1` (stereo not given), the figure is 944 s; as for `CCN1C(=O)C2(CCN(S(=O)(=O)c3ccc(Cl)cc3C)CC2)c2ccccc21`, 1200 s; as for `CC(C)n1cnc2cc(CNC(=O)c3ccc4c(c3)OCO4)ccc21`, 624 s.
Next, `CCS(=O)(=O)N1CCCc2cc(C(=O)NC(C)C)ccc21`: 746 s; `Cc1cc(C)cc(NC(=O)NCCc2c(C)nn(C)c2C)c1`: 664 s.
Consider `COc1ccc(C2Cn3cnc(C(=O)N4CCC(C(=O)NCC5CCCO5)CC4)c3CO2)cc1` (stereo not given), for which the RP-LC retention time stood at 655 s.
As for `Cc1cc(C)cc(C(=O)N2CCN(c3nc(C)cc(N4CCCC4)n3)CC2)c1`, the figure is 735 s; as for `Cc1ccccc1C(=O)Nc1nnc(SCc2nnc(-c3ccccc3)o2)s1`, 917 s; as for `COCCc1noc(-c2cnc3nc(C)ccc3c2Nc2ccc(F)cc2)n1`, 688 s.
On to `c1cncc(-c2nc(-c3ccc4c(c3)ncn4CCN3CCCCC3)no2)c1`, for which the RP-LC retention time worked out at 581 s.
Next, `CC(C)n1c(=O)c(NCc2ccc(N3CCCCC3)cc2)nc2ccncc21`: 554 s; `Cc1sc(-c2noc(C(C)C)n2)cc1S(=O)(=O)N1CCC(C(=O)NC2CCCCC2)CC1`: 1090 s; `CCN1C(=O)c2ccccc2Oc2ccc(C(=O)NCc3cccc(OC)c3)cc21`: 921 s.
Next, `O=C(NC1CCN(c2cc(-c3ccccc3)[nH]n2)C1)c1ccc(F)c(Cl)c1` (stereo not given): 767 s.
Next, `CCOc1ccc(C(=O)Nc2cc(Cl)ccc2C)nn1`: 1040 s.
`O=C(NCc1ccc(F)cc1)C1CCCN(C(=O)C2Sc3ccccc3NC2=O)C1` (stereo not given) registered an RP-LC retention time of 759 s.
As for `O=C(c1cc2c(s1)CCCC2)N1CCc2[nH]cnc2C12CCCCC2`, the figure is 692 s.
As for `CC(C)CCOc1cccc(OCC(=O)NCC(=O)O)c1`, the figure is 772 s; as for `CCn1cc(-c2nc(C)c(C(=O)NCc3cccc(OC)c3)s2)c2cccnc21`, 904 s.
As for `O=c1cccc2n1CC1CC2CN(Cc2nnc(-c3cccc(Br)c3)o2)C1` (stereo not given), the figure is 803 s; as for `CCCN1CCN(C(=O)c2c(C)sc3ccn(CC(C)C)c(=O)c23)CC1`, 618 s; as for `O=C(NCCc1csc(C2CCN(C(=O)c3cc(F)ccc3F)CC2)n1)C1CC1`, 699 s.
On to `Cn1nc(-c2nc(C3CC3)no2)c2c1CCN(C(=O)Nc1ccccc1Cl)C2`, for which the RP-LC retention time came out at 871 s.
As for `COc1ccc(OC)c(NS(=O)(=O)c2ccc3c(c2)-c2oncc2CO3)c1`, the figure is 889 s; as for `CCC(C)C(NC(=O)Cc1ccccc1Cl)C(=O)Nc1nc2ccccc2[nH]1` (stereo not given), 776 s; as for `CC1(C)CC(=O)C2=C(C1)Nc1ccccc1N(CC(=O)NCc1cccnc1)C2c1ccco1` (stereo not given), 614 s.
Next, `Cc1ccc(S(=O)(=O)N2CCCC2C(=O)Nc2ccc(Br)cc2)cc1` (stereo not given): 1020 s; `Cc1cccc(-n2c(=O)c3c(cc(C)n3C)n(CC(=O)Nc3c(C)cc(C)cc3C)c2=O)c1`: 914 s.
Next, `COc1ccc(Cl)cc1C(=O)N1CCC(C(=O)Nc2nccs2)CC1`: 697 s; `CN1CCC(NC(=O)c2n[nH]c3c2CN(C(=O)c2cc(F)cc(F)c2)CC3)CC1`: 597 s.
`O=C(Nc1cnn(-c2ncc(N3CCSCC3)cn2)c1)C1CCCO1` (stereo not given) displayed an RP-LC retention time of 665 s.
As for `CCC(C)NC(=O)c1cn(-c2ccc(-c3nc(C(C)C)no3)cn2)cn1` (stereo not given), the figure is 899 s.
As for `Cc1ccc(N2CC(c3nc(-c4ccc5c(c4)nc(C)c(=O)n5C4CCCC4)no3)CC2=O)cc1` (stereo not given), the figure is 1100 s; as for `O=C(Nc1ccc(F)cc1F)Nc1nccn(-c2ccc(F)cc2)c1=O`, 942 s; as for `CC(=O)Nc1nc(-c2ccc(S(=O)(=O)N3CCN(c4ccccc4)CC3)cc2)cs1`, 960 s.
`Cc1ccc(-c2csc(NC(=O)c3ccccc3Br)n2)cc1` returned an RP-LC retention time of 1080 s.
Take `CCOC(=O)c1c(S(=O)(=O)N2CCC(C(=O)NC3CCCCC3)CC2)c(C)n(C)c1C`: the RP-LC retention time stood at 828 s.
As for `Cc1ccc(-c2noc(C3CCCN3S(=O)(=O)c3ccc(C(C)C)cc3)n2)cc1` (stereo not given), the figure is 1310 s; as for `c1ccc2nc(OCCN3CC3)ccc2c1`, 727 s.
As for `O=C(NCc1ccccc1)C(=O)NCC1OCCc2ccccc21` (stereo not given), the figure is 893 s.
Next, `CC1CCN(c2nn(CC(=O)NCc3cccs3)c(=O)c3ccccc23)CC1`: 1030 s; `COc1ccc(Cl)cc1NC(=O)CN1C(=O)C2CCCCN2c2ccc(C(=O)N3CCCC3)cc21` (stereo not given): 934 s; `COCCNC(=O)C1CCCN(c2nn3cc(-c4ccc(F)cc4)nc3s2)C1` (stereo not given): 756 s.
In the case of `O=S(=O)(c1cccs1)N1CCCCC1c1nncn1CC1CC1` (stereo not given), the RP-LC retention time is 752 s.
Next, `CCn1ncc(N2CCCC(CC(=O)N3CCSCC3)C2)cc1=O` (stereo not given): 684 s; `CCc1cc(=O)n(CC(=O)N2CCN(c3ccc(F)cc3)CC2)c(N2CCOCC2)n1`: 720 s; `COc1cccc(CNC(=O)N2CCN(C3=CC4=NC(C)CN4C=N3)CC2)c1` (stereo not given): 649 s.
Turning to `CCc1cc(N2CCN(C(=O)c3cccc(C#N)c3)CC2)nc2nncn12`, the RP-LC retention time was 589 s.

The values above are taken from the METLIN SMRT retention time set (Domingo-Almenara et al. 2019).
